The text below walks through data of patent publication US10336788B2, “Inhibition of cardiac fibrosis in myocardial infarction” (Moerae Matrix, Inc., priority 2014, dated 2019).

No end group written: not given here.

The test system of one series is MK2. Kind of series: Immunoblot analysis of MK2 activity (HNRNPA0, total MK2, p-MK2) in H9C2 cells. It is filed as cell-based, rat. Here is the method: Cells were rinsed in PMS and grown in DMEM (cat. #11966-025, Gibco) for 2 hours prior to initiating hypoxia (simulated ischemia). Hypoxia was induced by placing cells in a hypoxia chamber ([…] 150i, Thermo Scientific) in a mixture of 5% CO2/95% N2 to attain a 1% oxygen concentration, according to the manufacturer's instruction. […] The MMI-0100 peptide was added to the cells at the start of the ischemia time. Cells were cultured in 12 well plates. At the time of performing the experiments, all cultures were approximately 70-90% confluent. Three different time points were adopted for each of the three cell lines according to the severity of cell death under hypoxia determined by LDH release: for H9C2 cell line: 8 hr; 16 hr; 24 hr; for HL-1 cell line: 4 hr; 8 hr; 12 hr; for cardiac fibroblast cell line: 16 hr; 32 hr; 48 hr.
The left over cell lysates from the Caspase activity assay were used for the Western blots. […] After blocking with recommended blocking reagents for 1 h at the room temperature, the membranes were incubated overnight at 4° C. with primary antibodies in TBS-T, and then incubated with secondary antibodies conjugated with HRP in TBS-T. HNRNPA0, MAPK2, and phospho-MAPK2 proteins were detected using anti-HNRNPA0 (cat. #HPA036569, 1:1000, Sigma-Aldrich), anti-MAPKAPK2 (cat. #SAB4300553, Sigma-Aldrich), and anti-phospho-MAPKAPK2 (cat. #SAB4300241, 1:1000, Sigma-Aldrich). […]
A general note: In western blotting, separated proteins are transferred to a membrane and probed.

The next series relates to C57BL/6 mice. Description: Survival analysis (Kaplan-Meier) after permanent LAD ligation or daily peptide. It is filed as in vivo, mouse. From the text: Nature Medicine. […] Nature. 2012; 485:593-8]. […] Proc Natl Acad Scie USA. […] Circulation Res. 2009; 105:80-8].
SigmaPlot (Systat Software, Inc., San Jose, Calif.) was used to determine significant statistical differences using a Log-rank (Mantel-Cox) test to determine differences in survival or a Kruskal-Wallis one-way ANOVA for both in vivo and in vitro studies at each terminal time point in experiments run in parallel. If significance was reached (p<0.05), a post-hoc all pairwise Multiple Comparison Procedures (Tukey Test) was performed between each of the groups to determine significance. Significance was defined as p<0.05.

A further series relates to H9C2 cells. Description: LDH release assay in H9C2 cells (1% hypoxia or normoxia). It is filed as cell-based, rat. To be noted: for LDH release: 1% hypoxia. The method, then:
H9C2 is a myoblast cell line derived from rat myocardium obtained from ATCC® (CRL-1446, ATCC, Manassas, Va.) and cultured according to the recommended protocols. Briefly, cells were maintained at 37° C. with 5% CO2 in DMEM supplemented with 10% fetal bovine serum and antibiotics (100 U/ml penicillin, […] streptomycin) and split at a ratio of 1:4 using 0.05% trypsin every 36 hours. HL-1 cells were obtained from Dr. William Claycomb and cultured according to the published protocols [Claycomb W C, Lanson N A, Jr., Stallworth B S, Egeland D B, Delcarpio J B, Bahinski A, et al. HL-1 cells: a cardiac muscle cell line that contracts and retains phenotypic characteristics of the adult cardiomyocyte. Proc. Natl Acad. Sci. USA. 1998; 95:2979-84; White S M, Constantin P E, Claycomb W C. Cardiac physiology at the cellular level: use of cultured HL-1 cardiomyocytes for studies of cardiac muscle cell structure and function. Am. J. Physiol. Heart Circul. Physiol. 2004; 286:H823-9]. […]
Cells were rinsed in PMS and grown in DMEM (cat. #11966-025, Gibco) for 2 hours prior to initiating hypoxia (simulated ischemia). […] Three different time points were adopted for each of the three cell lines according to the severity of cell death under hypoxia determined by LDH release: for H9C2 cell line: 8 hr; 16 hr; 24 hr; for HL-1 cell line: 4 hr; 8 hr; 12 hr; for cardiac fibroblast cell line: 16 hr; 32 hr; 48 hr.
Cell death was first determined using an LDH release assay (cat. #630117, Clontech), according to the manufacturer's instructions. […] Caspase 3/7 activity was next determined using a commercial Caspase 3/7 activity kit (Cat. #G8091, Promega, Madison, Wis. 53711) in a 384 well plate (Cat. #781903, Greiner bio-one) according to the manufacturer's instructions. […] The resulting cell lysates (25 μl, with 0.6 ug total protein) and Caspase-Glo 3/7 Reagent were added to each well in a 1:1 ratio and the luminescence was read (CLARIOstar, BMG LABTECH GmbH). […]

Series [1] relates to 40 non-kinase enzyme assays, including phosphatases and proteases. Kind of series: Panel of 40 non-kinase enzyme assays. It is filed as biochemical. To be noted: 100 μM; data not shown.

Take YARAAARQARAKALARQLGVAA [MMI-0100]: in the series with MK2 (100 μM, after induction by hypoxia), the HNRNPA0 expression result is listed as “significantly inhibited”. For the same sequence, in the series on MK2 (20 or 100 μM, 1% hypoxia), the “total MK2 and p-MK2 protein levels” value was “not changed”. In the series on C57BL/6 mice (AMI mice, daily intraperitoneal dosing, 14 days), the “survival after AMI with or without MMI-0100 treatment” value is “no differences in survival”. In the series on C57BL/6 mice (mice without AMI, daily MMI-0100 intraperitoneally vs PBS), the “effect on survival, MMI-0100 alone” value is on record as “did not have any effect”. Also, the LDH release result with H9C2 cells (100 μM only, 16 hours) is “enhanced”; in the series on H9C2 cells (20 and 100 μM, 8 hours) it was “significantly enhanced”. Further, the “LDH release in normoxic conditions” value with H9C2 cells (absence of hypoxia, 8 hours) is listed as “did not enhance LDH release”. Further, the “interaction at non-kinase enzyme targets (significant if greater than 50% inhibition of activity)” value in series [1] is “No significant interaction”.
